Measurements: BindingDB's records for patent US20240150287 (Hangzhou Apeloa Medicine Research Institute Co., 2024)
pIC50: −log10 of the molar value.

Biological target: T1, Mucosal addressin cell adhesion molecule 1/Integrin alpha-4/beta-7 (Homo sapiens, UniProt P13612+P26010+Q13477)
T1 sequence (P13612 whole entry): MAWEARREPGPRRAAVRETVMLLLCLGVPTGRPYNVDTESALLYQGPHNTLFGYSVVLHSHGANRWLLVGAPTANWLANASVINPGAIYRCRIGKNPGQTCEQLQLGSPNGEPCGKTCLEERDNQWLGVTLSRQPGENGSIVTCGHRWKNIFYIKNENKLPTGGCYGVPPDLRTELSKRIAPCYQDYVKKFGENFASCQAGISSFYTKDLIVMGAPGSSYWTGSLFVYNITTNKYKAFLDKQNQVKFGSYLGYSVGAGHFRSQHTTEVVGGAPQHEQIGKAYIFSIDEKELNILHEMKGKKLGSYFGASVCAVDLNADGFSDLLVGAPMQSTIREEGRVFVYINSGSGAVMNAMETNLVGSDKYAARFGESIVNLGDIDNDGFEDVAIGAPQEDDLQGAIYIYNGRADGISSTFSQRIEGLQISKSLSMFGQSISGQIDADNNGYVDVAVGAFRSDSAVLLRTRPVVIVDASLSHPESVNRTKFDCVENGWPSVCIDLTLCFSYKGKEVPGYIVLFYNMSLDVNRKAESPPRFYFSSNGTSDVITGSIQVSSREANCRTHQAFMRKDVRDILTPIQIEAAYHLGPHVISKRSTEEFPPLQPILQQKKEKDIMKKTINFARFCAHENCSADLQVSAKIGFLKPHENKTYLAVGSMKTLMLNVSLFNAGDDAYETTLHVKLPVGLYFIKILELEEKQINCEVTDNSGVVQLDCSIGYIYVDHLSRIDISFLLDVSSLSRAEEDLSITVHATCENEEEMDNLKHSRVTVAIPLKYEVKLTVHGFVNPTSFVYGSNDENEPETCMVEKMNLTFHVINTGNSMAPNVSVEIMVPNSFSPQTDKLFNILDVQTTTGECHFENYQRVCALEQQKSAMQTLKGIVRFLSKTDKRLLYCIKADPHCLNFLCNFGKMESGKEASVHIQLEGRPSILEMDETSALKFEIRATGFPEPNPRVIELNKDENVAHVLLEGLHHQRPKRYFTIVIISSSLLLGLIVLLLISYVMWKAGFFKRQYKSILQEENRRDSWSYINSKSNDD
T1 sequence (P26010 whole entry): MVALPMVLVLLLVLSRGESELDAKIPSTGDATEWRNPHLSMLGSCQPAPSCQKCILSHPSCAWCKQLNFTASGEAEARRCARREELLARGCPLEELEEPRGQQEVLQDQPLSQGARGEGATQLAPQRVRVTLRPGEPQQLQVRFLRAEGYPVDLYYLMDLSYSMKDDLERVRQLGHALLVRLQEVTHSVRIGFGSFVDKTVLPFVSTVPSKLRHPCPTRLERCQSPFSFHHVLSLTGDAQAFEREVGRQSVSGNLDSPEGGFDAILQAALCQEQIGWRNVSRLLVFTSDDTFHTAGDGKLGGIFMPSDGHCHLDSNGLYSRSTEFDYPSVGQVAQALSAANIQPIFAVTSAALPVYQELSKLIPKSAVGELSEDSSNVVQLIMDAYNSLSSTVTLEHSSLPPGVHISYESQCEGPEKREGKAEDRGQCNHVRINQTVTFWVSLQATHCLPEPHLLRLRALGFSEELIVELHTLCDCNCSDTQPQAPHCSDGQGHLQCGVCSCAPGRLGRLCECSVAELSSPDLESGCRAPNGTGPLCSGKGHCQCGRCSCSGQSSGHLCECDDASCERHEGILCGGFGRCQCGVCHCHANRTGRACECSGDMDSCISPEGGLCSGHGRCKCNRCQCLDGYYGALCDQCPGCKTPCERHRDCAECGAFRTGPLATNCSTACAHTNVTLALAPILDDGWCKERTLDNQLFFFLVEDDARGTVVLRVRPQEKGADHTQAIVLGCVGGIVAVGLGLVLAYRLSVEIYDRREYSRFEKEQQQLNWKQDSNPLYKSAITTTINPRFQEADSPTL
T1 sequence (Q13477 whole entry): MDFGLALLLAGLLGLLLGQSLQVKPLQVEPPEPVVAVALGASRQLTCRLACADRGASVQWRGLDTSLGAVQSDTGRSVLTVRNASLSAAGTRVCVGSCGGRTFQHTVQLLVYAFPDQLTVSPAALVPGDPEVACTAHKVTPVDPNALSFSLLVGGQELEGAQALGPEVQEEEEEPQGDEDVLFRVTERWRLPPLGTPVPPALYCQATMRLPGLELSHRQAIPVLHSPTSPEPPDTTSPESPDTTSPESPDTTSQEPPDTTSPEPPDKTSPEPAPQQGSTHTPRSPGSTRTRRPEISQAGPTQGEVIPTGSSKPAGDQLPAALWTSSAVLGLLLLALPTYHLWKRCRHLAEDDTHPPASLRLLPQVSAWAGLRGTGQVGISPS
Test: BINDING INHIBITION ACTIVITY EVALUATION TEST
Procedure: Coat the 96-well microplate (Costar) with 50 μL of recombinant human MAdCAM-1 (R&D Systems) solution per well, and incubate overnight (12-18 hours) at 4° C. Wash three times with 150 μL of TBS buffer per well. Block plate with 150 μL per well with blocking buffer for 1 h at 37° C. Wash three times with 150 μL of TBS buffer per well. Dilute the recombinant human integrin α4β7 (R&D Systems) with TBS buffer containing 0.1% bovine serum albumin (BSA), then add to the 96 well plate with 50 μL per well. Add 1 μL of test compound or DMSO, cover, incubate at room temperature for 2 h, wash three times with 150 μL of TBS buffer per well. Dilute the anti-β7 antibody (R&D Systems) with 0.1% BSA TBS buffer, then add to the 96 well plate with 50 μL per well, cover, incubate at room temperature for 1 h, wash three times with 150 μL of TBS buffer per well. Add 50 μL of streptavidin-HRP (R&D Systems) per well, incubate at room temperature for 20 min, wash three times with 150 μL of TBS buffer per well. Add 50 μL of TMB substrate solution (Sigma) per well, incubate at room temperature for 5-30 min, and add 25 μL of stop solution per well to stop the reaction. Finally, measure absorbance at 450 nm with microplate reader (SpectraMax 340PC. Molecular Devices). Repeat the test to find the binding rate […] at each concentration when the absorbance of the well without the test substance is used as 100%, and calculate the concentration IC50 that causes 50% binding inhibition.

Q: With COC(=O)[C@H](Cc1ccc(-n2c(=O)n(C)c3ccc(N(C)C)cc32)cc1)NC(c1ccccc1)(c1ccccc1)c1ccccc1 [US20240150287, Example 36] as the compound, how does the pIC50 read?
A: Its pIC50 is 8.82.

Q: With COC(=O)[C@H](Cc1ccc(-n2c(=O)n(C)c3cc(N(C)C)ccc32)cc1)NC(c1ccccc1)(c1ccccc1)c1ccccc1 [US20240150287, Example 37] as the compound, how does the pIC50 read?
A: The pIC50 was 8.29.

Q: COC(=O)[C@H](Cc1ccc(-n2c(=O)n(C)c3cccc(Cl)c32)cc1)NC(=O)c1c(Cl)cc(Cl)cc1Cl [US20240150287, Example 38] was tested. Which pIC50 did it give?
A: Its pIC50 is 7.55.

Q: How did the pIC50 turn out when COC(=O)[C@H](Cc1ccc(-n2c(=O)n(C)c3cccc(Cl)c32)cc1)NC(=O)c1c(Cl)cc(N2CCOCC2)cc1Cl [US20240150287, Example 39] was run?
A: Its pIC50 is 8.44.
